How the values were obtained:
[1] = system: vimentin (p-Ser38Vimentin)
Description: Cells were fixed, permeabilized, and prepared for immunohystochemistry (IHC) analysis.

[2] = system: mCherry-vimentin (soluble vimentin); test: Live cell target detection in BHK-21 cells transfected with pmCherry-vimentin-N-18; format: cell-based, hamster; conditions: 250 nM, 5 min, early spreading cells
Description: Soluble vimentin is a broad definition for the biochemical properties of vimentin forms that are extracted in low salt buffers (composed of tetramers, short oligomers, unit length filaments etc.). As such, these soluble vimentin forms are more dynamic structures. We employed a genetic approach to introduce a hybrid mCherry-vimentin construct to express vimentin as a fusion protein with the red fluorescent protein mCherry.
BHK-21 cells were transiently transfected with pmCherry-vimentin-N-18 plasmid (Adgene, MA) using lipofectamine, according to vendor instructions. Cells were trypsinized and replated in glass bottom culture plates (MatTek, MA) for 1 h in complete DMEM medium. […] Cells were immediately imaged live by epifluorescence microscopy, without fixation. […] Asterisks mark the position of the nucleus.

soluble vimentin = molecular target: T1, soluble vimentin (Mesocricetus auratus, UniProt P02544); test: Dynamic movement of vimentin structures, live imaging of BHK-21 cells; format: cell-based, hamster; conditions: 250 nM, 5 min, SF medium, images at 5 sec intervals
T1 construct: BHK-21 cells were plated in glass bottom culture plates for 18 h to promote spreading; endogenous in cells; host or cells: BHK-21
T1 sequence (P02544 2-465 limits assumed): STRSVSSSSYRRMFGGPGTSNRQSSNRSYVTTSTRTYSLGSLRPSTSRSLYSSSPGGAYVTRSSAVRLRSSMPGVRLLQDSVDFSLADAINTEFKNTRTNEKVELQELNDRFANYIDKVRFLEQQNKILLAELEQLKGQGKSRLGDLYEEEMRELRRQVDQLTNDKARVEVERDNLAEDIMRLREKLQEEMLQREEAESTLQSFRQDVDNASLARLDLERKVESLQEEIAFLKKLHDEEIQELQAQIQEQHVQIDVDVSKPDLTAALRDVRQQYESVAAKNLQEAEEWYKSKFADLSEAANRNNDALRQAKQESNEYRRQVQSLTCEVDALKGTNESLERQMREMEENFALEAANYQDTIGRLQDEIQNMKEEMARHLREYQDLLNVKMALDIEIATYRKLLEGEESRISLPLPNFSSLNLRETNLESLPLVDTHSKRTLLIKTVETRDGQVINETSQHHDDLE

[3] = molecular target: vimentin in corneal myofibroblasts (Mus musculus, UniProt P20152)
Chain of vimentin in corneal myofibroblasts (P20152 2-466 limits assumed): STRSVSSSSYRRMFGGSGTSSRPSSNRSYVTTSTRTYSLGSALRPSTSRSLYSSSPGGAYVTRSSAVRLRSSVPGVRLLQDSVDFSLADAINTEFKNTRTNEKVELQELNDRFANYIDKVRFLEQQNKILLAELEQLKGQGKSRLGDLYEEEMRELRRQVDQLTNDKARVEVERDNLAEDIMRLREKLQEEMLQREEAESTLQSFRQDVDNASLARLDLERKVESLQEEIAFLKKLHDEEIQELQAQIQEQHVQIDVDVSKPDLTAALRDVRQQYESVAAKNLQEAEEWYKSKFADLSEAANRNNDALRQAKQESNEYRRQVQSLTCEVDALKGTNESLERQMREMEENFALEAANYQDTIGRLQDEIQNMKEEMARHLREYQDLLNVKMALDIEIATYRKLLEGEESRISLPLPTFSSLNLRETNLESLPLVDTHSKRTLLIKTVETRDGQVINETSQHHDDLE
Description: Alkali injury to the cornea causes blindness due to the development of corneal fibrosis from overexpression of IF proteins in resident myofibroblasts. This model is extensively employed to investigate corneal fibrosis and role of IF proteins.
Thus, anesthetized mice were injured with alkali by application of 0.15N NaOH for 1 min to the cornea, eyes was extensively and the corneal epithelium gently removed. During the process of wound healing the resident keratocytes become activated into wound fibroblasts and subsequently into myofibroblasts to overexpress both vimentin and desmin, the two type III IFs in the cornea. Thus, heightened expression of these IF targets compared to uninjured corneas, the latter expressing very low levels of vimentin and no desmin, provided the rationale to compare uninjured mice. […] Mice were sacrificed after 1 h, eyes enucleated and cryosections were obtained.

[4] = molecular target: T2, vimentin (Muller glial filaments) (Mus musculus, UniProt P20152); test: In vivo delivery of probe to non injured mice, retina cryosections; conditions: 1 μM intraperitoneal, eyes enucleated after 24 h, FITC channel
T2 construct: from tissue; host or cells: mouse retina (in vivo, cryosections)
T2 sequence (P20152 2-466 limits assumed): as above
Description: Cryosections of the eye were subjected to fixation and subsequently stained with anti-vimentin antibody (V9) to mark Muller glial filaments.

[5] = molecular target: T3, vimentin associated with mitochondria (Mesocricetus auratus, UniProt P02544); test: Co-staining with MitoTracker dye in live BHK-21 cells; format: cell-based, hamster; conditions: 250 nM, 5 mins, serum-free medium
T3 construct: endogenous in cells; host or cells: BHK-21
T3 sequence (P02544 2-465 limits assumed): as the sequence (P02544 2-465 limits assumed) above
Description: BHK-21 cells were plated overnight and prior to staining placed in serum-free medium. […] Cells were washed and directly imaged live at dual wavelengths.

[6] = system: human vimentin-cherry hybrid; test: Time-lapse imaging of BHK-21 cells expressing polymerized mCherry-vimentin; format: cell-based, hamster; conditions: 250 nM, 5 minutes, serum-free medium, BHK-21 cells with mCherry-vimentin, replated 18 h
Chain of human vimentin-cherry hybrid (P08670 2-466 limits assumed): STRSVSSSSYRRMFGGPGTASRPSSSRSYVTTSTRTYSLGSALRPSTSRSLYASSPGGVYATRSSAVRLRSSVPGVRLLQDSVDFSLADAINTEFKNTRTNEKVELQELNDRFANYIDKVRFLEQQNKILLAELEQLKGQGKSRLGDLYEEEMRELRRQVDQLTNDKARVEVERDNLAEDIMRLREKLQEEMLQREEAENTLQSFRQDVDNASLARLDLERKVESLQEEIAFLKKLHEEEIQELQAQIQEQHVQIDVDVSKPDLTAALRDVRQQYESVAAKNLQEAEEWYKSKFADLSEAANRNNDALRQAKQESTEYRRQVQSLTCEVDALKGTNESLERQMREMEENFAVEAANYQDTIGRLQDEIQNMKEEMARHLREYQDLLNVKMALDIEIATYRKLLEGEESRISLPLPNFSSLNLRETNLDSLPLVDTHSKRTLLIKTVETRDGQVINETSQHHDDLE
Description: Transfection of human vimentin-cherry hybrid plasmid into fibroblasts and examination of polymerized vimentin structures under live cell imaging experiments identify numerous vimentin filaments that show some common, and yet, other distinct staining from the WFA-Verde-labeled structures. BHK-21 cells were transiently transfected with pmCherry-Vimentin-N-18 plasmid (Adgene, MA) using lipofectamine. Cells were cultured to establish the expression of plasmid and then trypsinzed and replated in glass culture plates for 18 h. […] Images at the starting point (T1), mid-point (T2) and at end of 3 minutes (T3).

[7] = system: BHK-21 cells (mitochondrial movements); test: Nocodazole treatment, time-lapse live imaging of BHK-21 cells with MitoTracker dye and WFA-Verde; format: cell-based, hamster; conditions: 10 μM Nocodazole
Description: BHK-21 cells were cultured in glass bottom plates and treated with MitoTracker® dye alone or separately with 10 μM Nocodazole. […] Time-lapse images were collected every 5 seconds in each of the four treatment groups.

[8] = molecular target: T4, soluble vimentin species bound to motile mitochondrial species (Mesocricetus auratus, UniProt P02544); test: Motility quantification of WFA-Verde-labeled particles in BHK-21 cells (FIJI/Image J); format: cell-based, hamster; conditions: 250 nM, images at 5 sec intervals
T4 construct: BHK-21 cells were plated in glass bottom culture plates for 18 h to promote spreading; endogenous in cells; host or cells: BHK-21
T4 sequence (P02544 2-465 limits assumed): as the sequence (P02544 2-465 limits assumed) above

vimentin and GFAP = conditions: laser injured mice, day 7, 1 μM intraperitoneal, sacrificed 24 h later
Description: Mice of both sexes were anesthetized and subjected to 4 equally spaced laser burns focused on the retinal pigment epithelium (RPE). Using the Meridian laser attached to Micron III retinal fundus microscope (Phoenix Research labs) we used strong injury (150 mW with 50 msec pulse) to promote retinal gliosis with CNV.
The mouse imaging system (Micron III, Phoenix Research Labs, CA) provided with an image-guided Meridian Merilas 532 nm (Nd:YVO) laser was employed. Using the Diode laser 625-645 nm as an aiming beam the continuous wave, KTP frequency doubled Nd:YVO 532 nm laser was employed to deliver laser injuries in anesthetized mice. Here four (150 mW; 10-μm diameter, 50 msec duration) laser shots equally spaced around the optic nerve were delivered to disrupt the RPE. […] Mice were sacrificed 24 h later and eyes enucleated for tissue sectioning and antibody staining to vimentin and GFAP.

Chain of mCherry-vimentin (soluble vimentin) (P08670 2-466 limits assumed): as the sequence (P08670 2-466 limits assumed) above

Molecule | labeling of vimentin structures in cell cytoplasm ([1]; 3.5 μM, 1 h, rabbit corneal fibroblast cells) | co-localization of probe with p-Ser38Vimentin ([1]; 3.5 μM, 1 h, rabbit corneal fibroblast cells, fixed, anti-pSer38Vimentin antibody) | effect on cytoskeleton ([1]; short exposure to higher dose (3.5 μM, 1 h), well spread cells) | co-localization with Vim-Cherry [2] | speed of WFA-Verde labeled dot-like structure (soluble vimentin) | overlap between vimentin antibody staining and probe binding ([3]; alkali injured corneas, majority of labeled cells) | probe staining of corneas from injured eyes ([3]; alkali injured mice, day 14, intraperitoneal, sacrificed after 1 h) | metabolic conversion in vivo ([3]; mouse, in vivo, ip) | time to reach the target organ after systemic delivery ([3]; mouse, in vivo, ip) | probe staining of non-injured corneas ([3]; non-injured mice, intraperitoneal, sacrificed after 1 h, corneal stroma) | incorporation of probe into vimentin in non-gliotic retina [4] | overlap of probe-stained vimentin structures with MitoTracker dye [5] | staining of vimentin structures at low dose [6] | overlap of WFA-Verde and MitoTracker staining under nocodazole [7] | rate of movement of majority of motile WFA-Verde-labeled particles [8] | labeling of Muller glia at laser lesion (vimentin and GFAP) | effect on movement of filaments ([7]; time-lapse every 5 seconds)
Withaferin A-BODIPY-FL [WFA-Verde] | does label both soluble and vimentin structures throughout the cell cytoplasm | extensive co-localization | did not dramatically alter the cytoskeleton | shows co-localization with Vim-Cherry | ~0.5 μm/sec | extensive overlap | abundance of WFA-Verde binding to corneal myofibroblasts | likely also not metabolically converted | ≤ 1 h | very low level of background staining | minimal incorporation | extensive overlap | does not stain to all vimentin structures | extensive overlap | ~0.01 micrometer/second | labeled the Muller glia extensively | 
CC1=C(COC(=O)CNC(=O)CCCCCNC(=O)COc2ccc(C3=[N+]4C(=Cc5ccc(-c6cccs6)n5[B-]4(F)F)C=C3)cc2)C(=O)OC(C(C)C2CCC3C4CC5OC56C(O)C=CC(=O)C6(C)C4CCC23C)C1 (stereo not drawn) [WFA-Rosa, Withaferin A-BODIPY-TR-X] |  |  |  |  |  |  |  |  |  |  |  |  |  |  |  | showed a similar pattern illuminating Muller glia | 
COC(=O)Nc1nc2ccc(C(=O)c3cccs3)cc2[nH]1 [Nocodazole, nocodazole, reference compound] |  |  |  |  |  |  |  |  |  |  |  |  |  |  |  |  | causes filaments to be arrested in movements

Reference: patent US10690683B2, “Methods of use for intermediate filament protein probes” (University of Connecticut, priority 2016, dated 2020)
